# PMC5007552, “The hVps34‐SGK3 pathway alleviates sustained PI3K/Akt inhibition by stimulating mTORC1 and tumour growth” (The EMBO Journal, 2016)
# Several values for one entry are separate records, joined by “and”; a condition that tells them apart may be missing. Equal values may be shown once.
# System: ZR-75-1 cells
# Assay: NanoString human kinome mRNA quantification
# Assay type: cell-based
# Source text: Human mRNAs were hybridised to NanoString human kinome and control code sets, then subjected to quantification using NanoString software. […] To permit data compaction, and simple kinome‐wide comparisons, the fold changes are log2 transformed. […] Cell pellets were resuspended at a concentration of ~6,500 cells/μl in RLT buffer (Qiagen). […] For total copy numbers, triplicate normalised count values were averaged, and to calculate fold induction, means were divided by triplicate mean values from matched DMSO controls. P‐values were calculated using unpaired t‐test (GraphPad Prism software) by employing treated and control count data for each kinase mRNA.
compound,measurement,setting,value
NC1(c2ccc(-c3nc4ccn5c(=O)[nH]nc5c4cc3-c3ccccc3)cc2)CCC1 [MK-2206],rank of SGK3 mRNA expression in the 536-member kinase panel,"1 μM, day 5, ZR-75-1, DMSO control 230th",94
same,AAK1 Average normalised counts,"AAK1 mRNA, average of 3 replicates",782.49
same,AAK1 Normalised counts,"AAK1 mRNA, single replicates",765.01 and 806.95 and 775.51
same,AATK Average normalised counts,"AATK mRNA, average of 3 replicates",168.267
same,AATK Normalised counts,"AATK mRNA, single replicates",168.73 and 152.79 and 183.28
same,ABL1 Average normalised counts,"ABL1 mRNA, average of 3 replicates",597.787
same,ABL1 Normalised counts,"ABL1 mRNA, single replicates",594.12 and 597.59 and 601.65
same,ABL2 Average normalised counts,"ABL2 mRNA, average of 3 replicates",904.847
same,ABL2 Normalised counts,"ABL2 mRNA, single replicates",861.36 and 926.84 and 926.34
same,ACVR1B Normalised counts,"ACVR1B mRNA, single replicates",285.69
same,ACVR1C Average normalised counts,"ACVR1C mRNA, average of 3 replicates",2.92
same,ACVR1C Normalised counts,"ACVR1C mRNA, single replicates",2.39 and 2.5 and 3.87
same,ACVR1 Normalised counts,"ACVR1 mRNA, single replicates",276.15 and 273.79
same,ACVR2A Average normalised counts,"ACVR2A mRNA, average of 3 replicates",137.863
same,ACVR2A Normalised counts,"ACVR2A mRNA, single replicates",146 and 131.94 and 135.65
same,ACVR2B Average normalised counts,"ACVR2B mRNA, average of 3 replicates",119.837
same,ACVR2B Normalised counts,"ACVR2B mRNA, single replicates",122.37 and 110.22 and 126.92
same,ACVRL1 Average normalised counts,"ACVRL1 mRNA, average of 3 replicates",5.713
same,ACVRL1 Normalised counts,"ACVRL1 mRNA, single replicates",4.2 and 5.1 and 7.84
same,ADCK1 Average normalised counts,"ADCK1 mRNA, average of 3 replicates",103.98
same,ADCK1 Normalised counts,"ADCK1 mRNA, single replicates",96.01 and 112.83 and 103.1
same,ADCK2 Average normalised counts,"ADCK2 mRNA, average of 3 replicates",571.397
same,ADCK2 Normalised counts,"ADCK2 mRNA, single replicates",535.04 and 567.18 and 611.97
same,ADCK3 Average normalised counts,"ADCK3 mRNA, average of 3 replicates",173.12
same,ADCK3 Normalised counts,"ADCK3 mRNA, single replicates",181.45 and 164.95 and 172.96
same,ADCK4 Average normalised counts,"ADCK4 mRNA, average of 3 replicates",488.637
same,ADCK4 Normalised counts,"ADCK4 mRNA, single replicates",486.86 and 483.78 and 495.27
same,ADCK5 Average normalised counts,"ADCK5 mRNA, average of 3 replicates",272.407
same,ADCK5 Normalised counts,"ADCK5 mRNA, single replicates",276.89 and 275.28
same,ADRBK1 Average normalised counts,"ADRBK1 mRNA, average of 3 replicates",4377.38
same,ADRBK1 Normalised counts,"ADRBK1 mRNA, single replicates",4312.7 and 4473.91 and 4345.53
same,ADRBK2 Average normalised counts,"ADRBK2 mRNA, average of 3 replicates",361.227
same,ADRBK2 Normalised counts,"ADRBK2 mRNA, single replicates",361.43 and 359.55 and 362.7
same,AKT1 Average normalised counts,"AKT1 mRNA, average of 3 replicates",6880.64
same,AKT1 Normalised counts,"AKT1 mRNA, single replicates",6785.99 and 6852.52 and 7003.4
same,AKT2 Average normalised counts,"AKT2 mRNA, average of 3 replicates",2329.47
same,AKT2 Normalised counts,"AKT2 mRNA, single replicates",2337.52 and 2309.87 and 2341.02
same,AKT3 Average normalised counts,"AKT3 mRNA, average of 3 replicates",1.89
same,AKT3 Normalised counts,"AKT3 mRNA, single replicates",2.39 and 1 and 2.28
same,ALK Average normalised counts,"ALK mRNA, average of 3 replicates",1
same,ALK Normalised counts,"ALK mRNA, single replicates",1
same,ALPK2 Average normalised counts,"ALPK2 mRNA, average of 3 replicates",16.6133
same,ALPK2 Normalised counts,"ALPK2 mRNA, single replicates",12.38 and 22.48 and 14.98
same,ALPK3 Average normalised counts,"ALPK3 mRNA, average of 3 replicates",74.1967
same,ALPK3 Normalised counts,"ALPK3 mRNA, single replicates",85.1 and 68.52 and 68.97
same,AMHR2 Average normalised counts,"AMHR2 mRNA, average of 3 replicates",1
same,AMHR2 Normalised counts,"AMHR2 mRNA, single replicates",1
same,ANKK1 Average normalised counts,"ANKK1 mRNA, average of 3 replicates",2.167
same,ANKK1 Normalised counts,"ANKK1 mRNA, single replicates",1 and 1.63 and 3.87
same,ARAF Average normalised counts,"ARAF mRNA, average of 3 replicates",918.807
same,ARAF Normalised counts,"ARAF mRNA, single replicates",894.08 and 950.29 and 912.05
same,ATM Average normalised counts,"ATM mRNA, average of 3 replicates",3.063
same,ATM Normalised counts,"ATM mRNA, single replicates",5.11 and 1 and 3.08
same,ATR Average normalised counts,"ATR mRNA, average of 3 replicates",668.797
same,ATR Normalised counts,"ATR mRNA, single replicates",672.29 and 661 and 673.1
same,AURKA Average normalised counts,"AURKA mRNA, average of 3 replicates",948.07
same,AURKA Normalised counts,"AURKA mRNA, single replicates",903.17 and 1006.76 and 934.28
same,AURKB Average normalised counts,"AURKB mRNA, average of 3 replicates",1225.21
same,AURKB Normalised counts,"AURKB mRNA, single replicates",1232.22 and 1235.24 and 1208.17
same,AURKC Average normalised counts,"AURKC mRNA, average of 3 replicates",8.06
same,AURKC Normalised counts,"AURKC mRNA, single replicates",7.84 and 7.71 and 8.63
same,AXL Average normalised counts,"AXL mRNA, average of 3 replicates",5.22
same,AXL Normalised counts,"AXL mRNA, single replicates",3.29 and 7.71 and 4.66
same,BCKDK Average normalised counts,"BCKDK mRNA, average of 3 replicates",3561.04
same,BCKDK Normalised counts,"BCKDK mRNA, single replicates",3631.88 and 3513.08 and 3538.17
same,BCR Average normalised counts,"BCR mRNA, average of 3 replicates",1460.29
same,BCR Normalised counts,"BCR mRNA, single replicates",1503.09 and 1393.35 and 1484.43
same,BLK Average normalised counts,"BLK mRNA, average of 3 replicates",26.4533
same,BLK Normalised counts,"BLK mRNA, single replicates",26.93 and 30.3 and 22.13
same,BMP2K Average normalised counts,"BMP2K mRNA, average of 3 replicates",406.717
same,BMP2K Normalised counts,"BMP2K mRNA, single replicates",374.15 and 422.97 and 423.03
same,BMPR1A Average normalised counts,"BMPR1A mRNA, average of 3 replicates",4758.43
same,BMPR1A Normalised counts,"BMPR1A mRNA, single replicates",4812.63 and 4697.18 and 4765.49
same,BMPR1B Average normalised counts,"BMPR1B mRNA, average of 3 replicates",1516.82
same,BMPR1B Normalised counts,"BMPR1B mRNA, single replicates",1517.63 and 1515.84 and 1516.98
same,BMPR2 Average normalised counts,"BMPR2 mRNA, average of 3 replicates",568.93
same,BMPR2 Normalised counts,"BMPR2 mRNA, single replicates",569.58 and 587.16 and 550.05
same,BMX Average normalised counts,"BMX mRNA, average of 3 replicates",1
same,BMX Normalised counts,"BMX mRNA, single replicates",1
same,BRAF Average normalised counts,"BRAF mRNA, average of 3 replicates",627.873
same,BRAF Normalised counts,"BRAF mRNA, single replicates",623.21 and 634.94 and 625.47
same,BRD2 Average normalised counts,"BRD2 mRNA, average of 3 replicates",2991.5
same,BRD2 Normalised counts,"BRD2 mRNA, single replicates",2957.43 and 3009.21 and 3007.86
same,BRD3 Average normalised counts,"BRD3 mRNA, average of 3 replicates",697.943
same,BRD3 Normalised counts,"BRD3 mRNA, single replicates",683.2 and 692.28 and 718.35
same,BRD4 Average normalised counts,"BRD4 mRNA, average of 3 replicates",2588.8
